Measured values reported in PubChem BioAssay (NCI).
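Growth conditions: 96-well plates. Treatment: test compound, 48 hours, 5 concentrations. Analysis: linear interpolation between bracketing concentrations; unreached endpoints set to highest concentration. TGI is the concentration that stops growth completely.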

tested on: NCI-H23 lung; assay: NCI anticancer screen, dose series, 48 h

`C=C1CN2CC(=C)CN(C1)CS(=O)(=O)N1CC(=C)CN(CC(=C)C1)S(=O)(=O)N1CC(=C)CN(CC(=C)C1)S(=O)(=O)C2` and `COC(=O)C1CCCN1C(=O)C(Cc1cn(S(=O)(=O)c2ccc(C)cc2)cn1)NC(=O)OC(C)(C)C` (configuration not stated) cannot be ordered by TGI: greater than 100 µM for the first, greater than 100 µM for the second.

Going from `C=C(Cl)C(C)(Cl)CCC(Br)C(C)(C)Cl` (configuration not stated) to `CCNC(=O)Nc1cccc(NC(=O)NCC)n1`, the TGI rises from 50.7 µM to greater than 100 µM.

Going from `Nc1ccc(S2(c3ccc(N)cc3)C=C(c3ccccc3)C(c3ccccc3)=C2)cc1` to `O=C1C(=Cc2ccccc2O)N=C(c2ccccc2)N1n1c(-c2ccccc2)nc2ccccc2c1=O`, the TGI falls from greater than 100 µM to 89.5 µM.

`CC(=O)O[C@]12CCCCCC1C1(O)C(O)CCCC[C@H]12` (some centres not stated) and `COC(=O)C1=C(C)NC(C)=C(C(=O)OC)C1c1nc2sccn2c1[N+](=O)[O-]` cannot be ordered by TGI: greater than 100 µM for the first, greater than 100 µM for the second.

With `O=c1c(C(c2ccc(Cl)cc2)c2c(O)c3ccccc3n(-c3ccccc3)c2=O)c(O)c2ccccc2n1-c1ccccc1` the TGI was greater than 100 µM.

tested on: RXF 393 renal; assay: NCI anticancer screen, dose series, 48 h

`COc1ccc(C2OC(c3ccncc3)=NN2C)cc1OC` (configuration not stated) and `COc1cc2c3c(c1OC)C1(C=CC(=O)C=C1)C[C@H]3N(C)CC2` cannot be ordered by TGI: greater than 100 µM for the first, greater than 100 µM for the second.

First: COc1c(C(C)C)cc2c3c1OC(=O)[C@@]31CCCC(C)(C)C1CC2 (some centres not stated)
Second: COc1ccc(C2COc3cc(O)c(O)cc3C2)cc1 (configuration not stated)
The TGI of the first is 2.8-fold higher: 56.3 µM for the first, 20.3 µM for the second.

`COc1ccc(N2C(=O)CSC2c2c[nH]c3ccccc23)cc1` (configuration not stated) and `OCc1ccc(C2CC(c3ccco3)=NN2c2ccccc2)o1` (configuration not stated) cannot be ordered by TGI: greater than 100 µM for the first, greater than 100 µM for the second.

Compared with `COC1C=COC2(C)Oc3c(C)c(O)c4c(O)c(c(C5SCCS5)c(O)c4c3C2=O)NC(=O)C(C)=C/C=C\C(C)C2OC(C)(C)OC(C2C)C(C)C(OC(C)=O)C1C` (configuration not stated), `COC(=O)C1=C(C)NC(C)=C(C(=O)OC)C1c1nc2sccn2c1[N+](=O)[O-]` is higher in TGI: 30 µM for the first, greater than 100 µM for the second.

`CCCCN=C(c1ccccc1)N1CCOCC1` and `CSc1sc2ccccc2[s+]1` cannot be ordered by TGI: greater than 100 µM for the first, greater than 100 µM for the second.

`CSc1ncnc2c1ncn2CCC#N` and `CCC(=O)ONC(=O)Cn1ccc([N+](=O)[O-])n1` cannot be ordered by TGI: greater than 100 µM for the first, greater than 100 µM for the second.

`CCOC(=O)c1ccc(C)c(N=NN(C)C)c1` and `CCNC(=O)Nc1cccc(NC(=O)NCC)n1` cannot be ordered by TGI: greater than 100 µM for the first, greater than 100 µM for the second.

Going from `CC(C)CC(O)P(=O)(O)O` (configuration not stated) to `C=C(Cl)C(C)(Cl)CCC(Br)C(C)(C)Cl` (configuration not stated), the TGI falls from greater than 100 µM to 30.3 µM.

First: CC(C)(Cl)C(Br)CCC(=CCCl)CBr (mixture of isomers)
Second: COC(=O)C1CCCN1C(=O)C(Cc1cn(S(=O)(=O)c2ccc(C)cc2)cn1)NC(=O)OC(C)(C)C (configuration not stated)
The TGI of the first is lower: 7.57 µM for the first, greater than 100 µM for the second.

`O=NN(CCCl)C(=O)NC1CCC(O)CC1` (configuration not stated) and `CC(=O)O[C@]12CCCCCC1C1(O)C(O)CCCC[C@H]12` (some centres not stated) cannot be ordered by TGI: greater than 71.5 µM for the first, greater than 100 µM for the second.

Going from `Nc1[nH]nc2nc3ccc(C(F)(F)F)cc3nc12` to `O=C(CN(c1ccccc1)c1ccccc1)n1nnc2ccccc21`, the TGI rises from 57.1 µM to greater than 100 µM.

Going from `C=C1CN2CC(=C)CN(C1)CS(=O)(=O)N1CC(=C)CN(CC(=C)C1)S(=O)(=O)N1CC(=C)CN(CC(=C)C1)S(=O)(=O)C2` to `O=c1c(C(c2ccc(Cl)cc2)c2c(O)c3ccccc3n(-c3ccccc3)c2=O)c(O)c2ccccc2n1-c1ccccc1`, the TGI rises from 56.8 µM to greater than 100 µM.

`Nc1ccc(S2(c3ccc(N)cc3)C=C(c3ccccc3)C(c3ccccc3)=C2)cc1` showed a TGI greater than 100 µM.

tested on: T-47D breast; assay: NCI anticancer screen, dose series, 48 h

`COc1ccc(C2OC(c3ccncc3)=NN2C)cc1OC` (configuration not stated) and `COc1cc(OC)c(C2c3cc4c(cc3OC(N3CCCC3)C2C)OCO4)c(OC)c1` (configuration not stated) cannot be ordered by TGI: greater than 100 µM for the first, greater than 100 µM for the second.

First: COc1ccc(N2C(=O)CSC2c2c[nH]c3ccccc23)cc1 (configuration not stated)
Second: O=C1C(=Cc2ccccc2O)N=C(c2ccccc2)N1n1c(-c2ccccc2)nc2ccccc2c1=O
The TGI of the first is higher: greater than 100 µM for the first, 93 µM for the second.

`COC1C=COC2(C)Oc3c(C)c(O)c4c(O)c(c(C5SCCS5)c(O)c4c3C2=O)NC(=O)C(C)=C/C=C\C(C)C2OC(C)(C)OC(C2C)C(C)C(OC(C)=O)C1C` (configuration not stated) and `COC(=O)C1=C(C)NC(C)=C(C(=O)OC)C1c1nc2sccn2c1[N+](=O)[O-]` cannot be ordered by TGI: greater than 100 µM for the first, greater than 100 µM for the second.

`CC(C)CC(O)P(=O)(O)O` (configuration not stated) and `CCNC(=O)Nc1cccc(NC(=O)NCC)n1` cannot be ordered by TGI: greater than 100 µM for the first, greater than 100 µM for the second.

Work on `Nc1ccc(S2(c3ccc(N)cc3)C=C(c3ccccc3)C(c3ccccc3)=C2)cc1` yielded a TGI greater than 100 µM.

tested on: SK-MEL-28 melanoma; assay: NCI anticancer screen, dose series, 48 h

`COc1ccc(C2OC(c3ccncc3)=NN2C)cc1OC` (configuration not stated) and `COc1cc2c3c(c1OC)C1(C=CC(=O)C=C1)C[C@H]3N(C)CC2` cannot be ordered by TGI: greater than 100 µM for the first, greater than 100 µM for the second.

Going from `COc1c(C(C)C)cc2c3c1OC(=O)[C@@]31CCCC(C)(C)C1CC2` (some centres not stated) to `COc1ccc(C2COc3cc(O)c(O)cc3C2)cc1` (configuration not stated), the TGI falls from greater than 100 µM to 32.9 µM.

`COc1ccc(N2C(=O)CSC2c2c[nH]c3ccccc23)cc1` (configuration not stated) and `OCc1ccc(C2CC(c3ccco3)=NN2c2ccccc2)o1` (configuration not stated) cannot be ordered by TGI: greater than 100 µM for the first, greater than 100 µM for the second.

`COC1C=COC2(C)Oc3c(C)c(O)c4c(O)c(c(C5SCCS5)c(O)c4c3C2=O)NC(=O)C(C)=C/C=C\C(C)C2OC(C)(C)OC(C2C)C(C)C(OC(C)=O)C1C` (configuration not stated) and `CC1CCCC(CC(=O)O)(CC(=O)O)C1` (configuration not stated) cannot be ordered by TGI: greater than 100 µM for the first, greater than 100 µM for the second.

`CCCCN=C(c1ccccc1)N1CCOCC1` and `CCOC(=O)c1ccc(C)c(N=NN(C)C)c1` cannot be ordered by TGI: greater than 100 µM for the first, greater than 100 µM for the second.

First: CSc1ncnc2c1ncn2CCC#N
Second: CC(C)(Cl)C(Br)CCC(=CCCl)CBr (mixture of isomers)
The TGI of the first is higher: greater than 100 µM for the first, 5.65 µM for the second.

Going from `CC(C)CC(O)P(=O)(O)O` (configuration not stated) to `O=NN(CCCl)C(=O)NC1CCC(O)CC1` (configuration not stated), the TGI falls from greater than 100 µM to 63.4 µM.
